The results in this text go back to publication PMC7998309, “Structural-Based Optimizations of the Marine-Originated Meridianin C as Glucose Uptake Agents by Inhibiting GSK-3β” (Marine Drugs, 2021).

The target in data set [1] is T1, human GSK-3β (Homo sapiens, UniProt P49841).
T1 construct: purchased Invitrogen
Kind of data set: Inhibition of recombinant GSK-3β (Z-lyte assay). In kind it is biochemical. As to conditions: for IC50: human GSK-3β, top concentration 30 μM. The protocol: The activity of recombinant GSK-3β (Invitrogen) was measured in a Z-lyte assay of Invitrogen. In this assay, 100 nL of the compound solution in DMSO was transferred to a 384-well assay plate (the compound got threefold serial dilution, and the top concentration of the compound was 30 μM in the final reaction mixture). Then 5 μL of an enzyme (2 nM) and Ser/Thr 9 peptide (4 μM) mixture was added. After the enzyme and peptide pre-incubation with the compound for 30 min at 23 °C, 5 μL of ATP (12 μM) solution was added. The plate was incubated for 60 min at 23 °C. The reaction was stopped with 5 μL of development reagent. Fluorescence signals were detected with Envision (PerkinElmer, America) after 30 min of incubation, and the emission ratio (RFU 460 nm/RFU 535 nm) was used to analyze the data. The relative IC50 was reported using four-parameter logistic fit of IDBS Xlfit software. The IC50 values were calculated using the following equation: %Phosphorylation = 1 - (Emission Ratio × F100%) - C100%/(C0% - C100%) + [Emission Ratio × (F100% - F0%)] where
Emission ratio = Coumarin/Fluorescein ratio of sample wells
C100% = Average coumarin emission signal of the 100% phos. control
C0% = Average coumarin emission signal of the 0% phos. control
F100% = Average fluorescein emission signal of the 100% phos. control
F0% = Average fluorescein emission signal of the 0% phos. control %Inhibition = {1 - %Phos Sample/%Phos 0%Inhibition Ctl}*100

The test system of data set [2] is HepG2 cells. Kind of data set: Cell glucose uptake assay in HepG2 cells. It is filed as cell-based, human. As to conditions: relative glucose uptake at 5 µM in HepG2 cells, 3 h, compared with original glucose concentration of the medium; na = not active at 5 µM. On the procedure:
(§1) The hepatocyte cell line HepG2 cells obtained from the Type Culture Collection of the Chinese Academy of Sciences (Shanghai, China) were maintained in high-glucose DMEM (Gibco) supplemented with 10% fetal bovine serum (FBS) and 1% penicillin-streptomycin in an atmosphere of 5% CO2 at 37 °C.
Into a 96-well plate, 5 × 10^3 HepG2 cells per well were seeded. After 48 h, phenol red-free DMEM (Gibco) with 1% FBS was transferred to deprive the cells overnight, and then the tested compounds dissolved in a glucose-HEPES buffer (glucose concentration was 100 µg/mL) at a concentration of 5 µM were added to the culture system. Three hours later, the culture supernatants were collected and the glucose concentrations were detected using the Glucose (GO) Assay Kit (Sigma-Aldrich Corp.). Compared with the original glucose concentration of the buffer, the relative glucose uptake was calculated.

Data set [3] can be described thus: MTT assay for cell viability (cytotoxicity). As to conditions: human; HepG2 cells, 48 h incubation, MTT. In kind it is cell-based, human. On the procedure: as §1
(§2) Into a 96-well plate, 1 × 10^3 HepG2 cells per well were seeded. After 24 h, stock solutions of test compounds in DMSO were diluted in DMEM to ≤0.1% final DMSO concentration. Cells were treated with various concentrations (2.5–25 µM) of tested compounds for 48 h, and the MTT solution (0.5 mg/mL) was added. After 4 h of incubation at 37 °C for MTT-formazan formation, the supernatant was discarded and 100 µL of DMSO was applied into each well to dissolve formazan crystals. Absorbance at 490 nm was determined spectrophotometrically by using a microplate reader (Epoch, BioTek Instruments, Inc., Winooski, VT, USA).
Background: Formazan colour is commonly taken as a measure of viable cells.

Data set [4] has as its system HepG2 cells. Kind of data set: MTT assay for cell viability (cytotoxicity). In kind it is cell-based, human. On the procedure: as §1, §2

T1 sequence (P49841 whole entry): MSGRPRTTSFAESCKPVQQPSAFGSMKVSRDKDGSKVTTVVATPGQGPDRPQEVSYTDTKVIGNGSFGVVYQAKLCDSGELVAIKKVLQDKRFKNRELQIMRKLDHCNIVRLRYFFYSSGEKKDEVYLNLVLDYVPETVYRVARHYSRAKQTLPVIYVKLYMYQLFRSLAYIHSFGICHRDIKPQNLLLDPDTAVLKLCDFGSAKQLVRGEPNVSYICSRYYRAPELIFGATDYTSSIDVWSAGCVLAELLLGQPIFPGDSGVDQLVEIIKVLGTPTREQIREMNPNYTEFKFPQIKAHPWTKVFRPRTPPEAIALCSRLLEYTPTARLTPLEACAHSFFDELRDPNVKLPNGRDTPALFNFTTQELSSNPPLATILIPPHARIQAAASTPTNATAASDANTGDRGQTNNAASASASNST

As a reminder, the IC50 is the concentration needed to halve the response being measured. The melting point is the temperature of the solid-liquid transition. Broadly, the CC50 is the concentration that lowers cell viability or growth by half. As for `Nc1ncc(-c2ccc(NC(=O)c3ccccc3Br)cc2)c(-c2c[nH]c3ccc(Br)cc23)n1` [A13, N-(4-(2-amino-4-(5-bromo-1H-indol-3-yl)pyrimidin-5-yl)phenyl)-2-bromobenzamide], the melting point lay in the range of 147.4 to 148.3 °C. Besides, in data set [1], the “inhibitory activity against GSK-3β at 30 µM (in words)” value is on record as “no apparent inhibitory activity” and the IC50 is above 30 µM. The “Cell Glucose Uptake (%)” value in data set [2] amounted to 27%. Also, the CC50 at 48 h in data set [3] was above 25 µM.

`Nc1ncc(-c2ccc(NC(=O)c3cc(Cl)cc(Cl)c3)cc2)c(-c2c[nH]c3ccc(Br)cc23)n1` [A26, N-(4-(2-amino-4-(5-bromo-1H-indol-3-yl)pyrimidin-5-yl)phenyl)-3,5-dichlorobenzamide]: the melting point was in the range of 177.7 to 178.5 °C. Further, in data set [1], the “inhibitory activity against GSK-3β at 30 µM (in words)” value is recorded as “no apparent inhibitory activity” and the IC50 was above 30 µM. Moreover, the “Cell Glucose Uptake (%)” value in data set [2] is on record as 22%. Also, it took 14.3 µM to reach half-maximal cytotoxicity in data set [3] (CC50 at 48 h).

As to `Fc1ccccc1Nc1nccc(-c2c[nH]c3ccc(Br)cc23)n1` [B1, 4-(5-Bromo-1H-indol-3-yl)-N-(2-fluorophenyl) pyrimidin-2-amine], the melting point was 206.6 to 207.1 °C. Further, the “Cell Glucose Uptake (%)” value in data set [2] is on record as 20%. In data set [3], the CC50 at 48 h worked out at 10.5 µM.

For the compound `Fc1cccc(Nc2nccc(-c3c[nH]c4ccc(Br)cc34)n2)c1` [B2, 4-(5-Bromo-1H-indol-3-yl)-N-(3-fluorophenyl) pyrimidin-2-amine], the melting point was 211.8 to 212.4 °C. The “Cell Glucose Uptake (%)” value in data set [2] is “no change”. Moreover, in data set [3], it took 10.7 µM to reach half-maximal cytotoxicity (CC50 at 48 h).

Consider `Fc1ccc(Nc2nccc(-c3c[nH]c4ccc(Br)cc34)n2)cc1` [B3, 4-(5-Bromo-1H-indol-3-yl)-N-(4-fluorophenyl) pyrimidin-2-amine], for which the melting point lay in the range of 246.8 to 247.7 °C. The “Cell Glucose Uptake (%)” value in data set [2] was found to be 7.4%. The CC50 at 48 h in data set [3] was 12.8 µM.

As for `Clc1ccccc1Nc1nccc(-c2c[nH]c3ccc(Br)cc23)n1` [B4, 4-(5-Bromo-1H-indol-3-yl)-N-(2-chlorophenyl) pyrimidin-2-amine], the melting point was in the range of 173.8 to 174.6 °C. Further, the “Cell Glucose Uptake (%)” value in data set [2] turned out to be 22%. In data set [3], the CC50 at 48 h is above 25 µM.

In the case of `Clc1ccc(Nc2nccc(-c3c[nH]c4ccc(Br)cc34)n2)cc1` [B6, 4-(5-Bromo-1H-indol-3-yl)-N-(4-chlorophenyl) pyrimidin-2-amine], the melting point lay within 273.5 to 274.8 °C. The “Cell Glucose Uptake (%)” value in data set [2] is recorded as 14.4%. In data set [3], it took 21.1 µM to reach half-maximal cytotoxicity (CC50 at 48 h).

Regarding `Brc1ccc2[nH]cc(-c3ccnc(Nc4ccccc4Br)n3)c2c1` [B7, 4-(5-Bromo-1H-indol-3-yl)-N-(2-bromophenyl) pyrimidin-2-amine], the melting point was in the range of 177.8 to 178.4 °C. The “Cell Glucose Uptake (%)” value in data set [2] is listed as 26%. Besides, the CC50 at 48 h in data set [3] is above 25 µM.

`Brc1ccc(Nc2nccc(-c3c[nH]c4ccc(Br)cc34)n2)cc1` [B9, 4-(5-Bromo-1H-indol-3-yl)-N-(4-bromophenyl) pyrimidin-2-amine] displayed a melting point of 276.7 to 277.5 °C. In addition, the “Cell Glucose Uptake (%)” value in data set [2] turned out to be 12.6%. In data set [3], this compound yielded a CC50 at 48 h of 20.3 µM.

Take `FC(F)(F)c1ccccc1Nc1nccc(-c2c[nH]c3ccc(Br)cc23)n1` [B10, 4-(5-Bromo-1H-indol-3-yl)-N-(2-(trifluoromethyl)phenyl) pyrimidin-2-amine]: the melting point was in the range of 150.5 to 151.3 °C. Also, in data set [2], the “Cell Glucose Uptake (%)” value is reported as 20.2%. The CC50 at 48 h in data set [3] is above 25 µM.

With `Cc1ccccc1Nc1nccc(-c2c[nH]c3ccc(Br)cc23)n1` [B13, 4-(5-Bromo-1H-indol-3-yl)-N-(o-tolyl) pyrimidin-2-amine], the melting point lay within 187.6 to 188.4 °C. Also, the “Cell Glucose Uptake (%)” value in data set [2] is 14.9%. The CC50 at 48 h in data set [3] was above 25 µM.

On to `COc1ccccc1Nc1nccc(-c2c[nH]c3ccc(Br)cc23)n1` [B16, 4-(5-Bromo-1H-indol-3-yl)-N-(2-methoxyphenyl) pyrimidin-2-amine], for which the melting point fell in the range of 207.9 to 208.3 °C. Further, the “Cell Glucose Uptake (%)” value in data set [2] amounted to 17%. For the same compound, in data set [3], the CC50 at 48 h turned out to be 21.4 µM.

`COc1ccc(Nc2nccc(-c3c[nH]c4ccc(Br)cc34)n2)cc1` [B18, 4-(5-Bromo-1H-indol-3-yl)-N-(4-methoxyphenyl) pyrimidin-2-amine] returned a melting point of 245.7 to 246.3 °C. In addition, the “Cell Glucose Uptake (%)” value in data set [2] came to 6.1%. This compound registered a CC50 at 48 h in data set [3] of 6 µM.

As for `CC(C)c1ccccc1Nc1nccc(-c2c[nH]c3ccc(Br)cc23)n1` [B19, 4-(5-Bromo-1H-indol-3-yl)-N-(2-isopropylphenyl) pyrimidin-2-amine], the melting point fell in the range of 110.5 to 111.3 °C. For the same compound, the “Cell Glucose Uptake (%)” value in data set [2] is recorded as 13%. The compound further came in with a CC50 at 48 h in data set [3] above 25 µM.

In turn, `Fc1cccc(F)c1Nc1nccc(-c2c[nH]c3ccc(Br)cc23)n1` [B29, 4-(5-Bromo-1H-indol-3-yl)-N-(2,6-difluorophenyl) pyrimidin-2-amine] had a melting point of 263.3 to 264.2 °C. Also, the IC50 in data set [1] worked out at 5.85 µM. Besides, the “Cell Glucose Uptake (%)” value in data set [2] came out at 29%. In addition, in data set [3], it took 22.4 µM to reach half-maximal cytotoxicity (CC50 at 48 h). In addition, the “toxicity against HepG2 cells (in words)” value in data set [4] is given as “no significant toxicity”.

Consider `Cc1cccc(C)c1Nc1nccc(-c2c[nH]c3ccc(Br)cc23)n1` [B30, 4-(5-Bromo-1H-indol-3-yl)-N-(2,6-dimethylphenyl) pyrimidin-2-amine], for which the melting point was 228.5 to 229.4 °C. In addition, the IC50 in data set [1] amounted to 24.4 µM. For the same compound, the “Cell Glucose Uptake (%)” value in data set [2] is recorded as 38%. The midpoint of cytotoxicity in data set [3], the CC50 at 48 h, lay at 18.1 µM. Further, in data set [4], the “toxicity against HepG2 cells (in words)” value is given as “no significant toxicity”.

Compound `COc1cccc(OC)c1Nc1nccc(-c2c[nH]c3ccc(Br)cc23)n1` [B31, 4-(5-Bromo-1H-indol-3-yl)-N-(2,6-dimethoxyphenyl) pyrimidin-2-amine] displayed a melting point of 244.3 to 245.6 °C. The “Cell Glucose Uptake (%)” value in data set [2] is 16%. The same compound gave a CC50 at 48 h in data set [3] of 19.2 µM.
